For the assay, the system named is DNIC efficiency (diffuse noxious inhibitory control). Conditions: 60 mg once a day for one week, healthy volunteers.

The record followed here is US20100312073A1, “METHOD OF […] […]” (priority 2008, published 2010).

The structures appear in SMILES notation. Where two headings read alike, the source gives them in different places.

Excerpt: According to an exemplary testing procedure, the DNIC can be assessed as the difference of pain ratings to ‘test stimulus’ applied before and during the immersion of the contralateral hand into hot water bath (conditioning stimulus) as elaborated infra. Exemplary test stimulus of a 30 seconds period with contact heat, such as 30×30 mm^2 thermode TSA-2001 available from Medoc, can be delivered for instance on the non-dominant forearm at the individually-predetermined temperature that evoked pain intensity of 60 on a 0-100 NPS (more details in Granot et al., 2006). The stimulus temperature can be raised by 2° C./sec from 32° C. to the destination temperature. Fifteen minutes after the completion the first pre-immersion test, the patient is asked to immerse his/her dominant hand for 1′ into the water bath of 46.5° C. (Neto Cooling Bath CBN 8-30, Allerod, Denemark), while second application of the ‘test stimulus’ is repeated during last 30 seconds of immersion. […]
DNIC paradigm, tested at baseline and after each of the treatments, consisted of administration of two painful stimuli, a test-pain delivered by contact heat, and a ‘conditioning’ pain induced by hot water immersion of the other hand. The DNIC efficiency was calculated as the difference between pain perceptions induced by the test-pain when given alone, and when given concomitantly with the conditioning one.

In the case of `CNCC[C@H](Oc1cccc2ccccc12)c1cccs1` [Duloxetine], the “Duloxetine treatment DNIC score” value is on record as 29.26 (high pre-treatment DNIC group (pre-treatment DNIC score 32.50), NS vs. pre-treatment) and 19.35 (low pre-treatment DNIC group (pre-treatment DNIC score 0.15), P<0.05 vs. pre-treatment (Tukey)).
